# Test results published in patent US20230278972A1, “SUBSTITUTED HALOALKYL SULFONANILIDE HERBICIDES” (FMC Corporation, priority 2020, published 2023).
# Experiments:
# [1] = tested on: Ryegrass, Italian (Italian ryegrass, Lolium multiflorum); test: Test A postemergence, Ryegrass, Italian; assay type: in vivo; details: Lolium multiflorum, post-emergence, 240 h, read-out: Plant response rating, Ryegrass, Italian
# Outline: (§1)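 Test chemicals, formulated in a non-phytotoxic solvent mixture with surfactant, were sprayed postemergence on plants 2 to 10 cm tall at the one- to two-leaf stage. Preemergence treatment was a directed soil spray onto freshly seeded pots. Both used a loam soil and sand blend.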
# [2] = tested on: corn (Zea mays); test: Test A postemergence, corn; assay type: in vivo; details: Zea mays, post-emergence, 240 h, read-out: Plant response rating, Corn
# Outline: as §1
# [3] = tested on: wheat (Triticum aestivum); test: Test A postemergence, wheat; assay type: in vivo; details: Triticum aestivum, post-emergence, 240 h, read-out: Plant response rating, Wheat
# Outline: (§2)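 Compounds in non-phytotoxic solvent with surfactant. Soil: loam/sand. Preemergence via directed soil spray after seeding; postemergence on seedlings 2–10 cm, one- to two-leaf.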
# [4] = tested on: pigweed (Amaranthus retroflexus); test: Test A postemergence, pigweed; assay type: in vivo; details: Amaranthus retroflexus, post-emergence, 240 h, read-out: Plant response rating, Pigweed
# Outline: as §1
# [5] = tested on: ragweed (common ragweed, Ambrosia artemisiifolia); test: Test A preemergence, ragweed; assay type: in vivo; details: Ambrosia artemisiifolia, pre-emergence, 240 h
# Outline: as §1
# [6] = tested on: Ryegrass, Italian (Italian ryegrass, Lolium multiflorum); test: Test A preemergence, Ryegrass, Italian; assay type: in vivo; details: Lolium multiflorum, pre-emergence, 240 h
# Outline: as §1
# [7] = tested on: Foxtail, Giant (giant foxtail, Setaria faberi); test: Test A preemergence, Foxtail, Giant; assay type: in vivo; details: Setaria faberi, pre-emergence, 240 h
# Outline: as §1
# [8] = tested on: kochia (Bassia scoparia); test: Test A postemergence, kochia; assay type: in vivo; details: Bassia scoparia, post-emergence, 240 h, read-out: Plant response rating, Kochia
# Outline: as §1
# [9] = tested on: blackgrass (Alopecurus myosuroides); test: Test A postemergence, blackgrass; assay type: in vivo; details: Alopecurus myosuroides, post-emergence, 240 h, read-out: Plant response rating, Blackgrass
# Outline: as §1
# [10] = tested on: ragweed (common ragweed, Ambrosia artemisiifolia); test: Test A postemergence, ragweed; assay type: in vivo; details: Ambrosia artemisiifolia, post-emergence, 240 h, read-out: Plant response rating, Ragweed
# Outline: as §1
# [11] = tested on: galium (catchweed bedstraw, Galium aparine); test: Test A postemergence, galium; assay type: in vivo; details: Galium, post-emergence, 240 h, read-out: Plant response rating, Galium
# Outline: as §2
# [12] = tested on: barnyardgrass (Echinochloa crus-galli); test: Test B flooded paddy test, barnyardgrass; details: 336 h, read-out: Plant response rating, Barnyardgrass
# [13] = tested on: kochia (Bassia scoparia); test: Test A preemergence, kochia; assay type: in vivo; details: Bassia scoparia, pre-emergence, 240 h
# Outline: as §1
# [14] = tested on: barnyardgrass (Echinochloa crus-galli); test: Test A postemergence, barnyardgrass; assay type: in vivo; details: Echinochloa crus-galli, post-emergence, 240 h, read-out: Plant response rating, Barnyardgrass
# Outline: as §2
# [15] = tested on: ducksalad (Heteranthera limosa); test: Test B flooded paddy test, ducksalad; details: 336 h, read-out: Plant response rating, Ducksalad
# [16] = tested on: rice (Oryza sativa); test: Test B flooded paddy test, rice; details: 336 h, read-out: Plant response rating, Rice
# [17] = tested on: Foxtail, Giant (giant foxtail, Setaria faberi); test: Test A postemergence, Foxtail, Giant; assay type: in vivo; details: Setaria faberi, post-emergence, 240 h, read-out: Plant response rating, Foxtail, Giant
# Outline: as §1
# [18] = tested on: barnyardgrass (Echinochloa crus-galli); test: Test A preemergence, barnyardgrass; assay type: in vivo; details: Echinochloa crus-galli, pre-emergence, 240 h
# Outline: as §1
compound,measurement,setting,value
"Cc1cc(C)c(N(S(=O)(=O)C(F)(F)F)S(=O)(=O)C(F)(F)F)cc1N1CCC2(CCCCC2)C1=O [Compound 267, N-[2,4-Dimethyl-5-(1-oxo-2-azaspiro[4.5]dec-2-yl)phenyl]-1,1,1-trifluoro-N-[(trifluoromethyl)sulfonyl]methanesulfonamide]",pest or weed control at 125 g/ha,[1],0%
same,pest or weed control at 500 g/ha,[1],30%
same,plant injury at 125 g/ha,[2],0%
same,plant injury at 500 g/ha,[2],0%
same,plant injury at 125 g/ha,[3],40%
same,plant injury at 500 g/ha,[3],60%
same,pest or weed control at 125 g/ha,[4],50%
same,pest or weed control at 500 g/ha,[4],80%
same,pest or weed control at 125 g/ha,"[5]; read-out: Plant response rating, Ragweed",100%
same,pest or weed control at 500 g/ha,[5]; read-out: Ragweed plant response rating,100%
same,pest or weed control at 125 g/ha,"[6]; read-out: Plant response rating, Ryegrass, Italian",90%
same,pest or weed control at 500 g/ha,"[6]; read-out: Ryegrass, Italian plant response rating",100%
same,pest or weed control at 500 g/ha,"[7]; read-out: Foxtail, Giant plant response rating",100%
same,pest or weed control at 125 g/ha,"[7]; read-out: Plant response rating, Foxtail, Giant",100%
same,pest or weed control at 125 g/ha,[8],40%
same,pest or weed control at 500 g/ha,[8],60%
same,pest or weed control at 125 g/ha,[9],0%
same,pest or weed control at 500 g/ha,[9],20%
same,pest or weed control at 125 g/ha,[10],10%
same,pest or weed control at 500 g/ha,[10],40%
same,pest or weed control at 125 g/ha,[11],80%
same,pest or weed control at 500 g/ha,[11],90%
same,pest or weed control at 250 g/ha,[12],0%
same,pest or weed control at 500 g/ha,[13]; read-out: Kochia plant response rating,100%
same,pest or weed control at 125 g/ha,"[13]; read-out: Plant response rating, Kochia",80%
same,pest or weed control at 125 g/ha,[14],20%
same,pest or weed control at 500 g/ha,[14],20%
same,pest or weed control at 250 g/ha,[15],35%
same,plant injury at 250 g/ha,[16],0%
same,pest or weed control at 125 g/ha,[17],0%
same,pest or weed control at 500 g/ha,[17],0%
same,pest or weed control at 500 g/ha,[18]; read-out: Barnyardgrass plant response rating,100%
same,pest or weed control at 125 g/ha,"[18]; read-out: Plant response rating, Barnyardgrass",100%
